Measurements from patent publication US12077503B2, “Substituted cyclic amides and their use as herbicides” (FMC CORPORATION, priority 2015, dated 2024).

Legend:
Assay type in all cases: in vivo
[1] = test system: barnyardgrass (Echinochloa crus-galli); assay: Test B flooded paddy test; settings: Echinochloa crus-galli, Flood, 250 g ai/ha; scale of 0 to 100 where 0 is no effect and 100 is complete control; read-out: Barnyardgrass plant response rating
Summary of the method: (§1)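 Plants at 2-leaf stage flooded to 3 cm above soil, with compounds applied directly to paddy water and that depth maintained. Plants kept in greenhouse 13–15 d. Visual rating versus controls on a 0 (no effect) to 100 (complete control) scale.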

rice (Oryra sativa) = assay: Test B flooded paddy test; settings: Oryza sativa, Flood, 250 g ai/ha; scale of 0 to 100 where 0 is no effect and 100 is complete control; read-out: Rice plant response rating
Summary of the method: as §1

[2] = test system: sedge, umbrella (small-flower umbrella sedge, Cyperus difformis); assay: Test B flooded paddy test; settings: Cyperus difformis, Flood, 250 g ai/ha; scale of 0 to 100 where 0 is no effect and 100 is complete control; read-out: Sedge, Umbrella plant response rating
Summary of the method: as §1

[3] = test system: ducksalad (Heteranthera limosa); assay: Test B flooded paddy test; settings: Heteranthera limosa, Flood, 250 g ai/ha; scale of 0 to 100 where 0 is no effect and 100 is complete control; read-out: Ducksalad plant response rating
Summary of the method: as §1

[4] = test system: barnyardgrass (Echinochloa crus-galli); assay: Test A postemergence; settings: Echinochloa crus-galli, post-emergence, 240 h, 125 g ai/ha, Postemergence; visual injury after approximately 10 d; 0 to 100 scale where 0 is no effect and 100 is complete control; read-out: Plant response rating, Barnyardgrass
Summary of the method: (§2)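 Seeds sprayed preemergence with a directed soil spray, or plants at 2 to 10 cm height and one- to two-leaf stage sprayed postemergence, with test chemicals in a non-phytotoxic solvent mixture containing surfactant, in loam soil–sand blend. Injury rated visually against untreated controls after about 10 d in greenhouse, 0 (no effect) to 100 (complete control).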

[5] = test system: wheat (Triticum aestivum); assay: Test A postemergence; settings: Triticum aestivum, post-emergence, 240 h, 125 g ai/ha, Postemergence; visual injury after approximately 10 d; 0 to 100 scale where 0 is no effect and 100 is complete control; read-out: Plant response rating, Wheat
Summary of the method: as §2

[6] = test system: ragweed (common ragweed, Ambrosia elatior); assay: Test A postemergence; settings: Ambrosia artemisiifolia, post-emergence, 240 h, 125 g ai/ha, Postemergence; visual injury after approximately 10 d; 0 to 100 scale where 0 is no effect and 100 is complete control; read-out: Plant response rating, Ragweed
Summary of the method: as §2

[7] = test system: pigweed (Amaranthus retroflexus); assay: Test A postemergence; settings: Amaranthus retroflexus, post-emergence, 240 h, 125 g ai/ha, Postemergence; visual injury after approximately 10 d; 0 to 100 scale where 0 is no effect and 100 is complete control; read-out: Plant response rating, Pigweed
Summary of the method: as §2

corn (Zea mays) = assay: Test A postemergence; settings: Zea mays, post-emergence, 240 h, 125 g ai/ha, Postemergence; visual injury after approximately 10 d; 0 to 100 scale where 0 is no effect and 100 is complete control
Summary of the method: as §2

[8] = test system: blackgrass (Alopecurus myosuroides); assay: Test A postemergence; settings: Alopecurus myosuroides, post-emergence, 240 h, 125 g ai/ha, Postemergence; visual injury after approximately 10 d; 0 to 100 scale where 0 is no effect and 100 is complete control; read-out: Plant response rating, Blackgrass
Summary of the method: as §2

[9] = test system: ryegrass, Italian (Italian ryegrass, Lolium multiflorum); assay: Test A postemergence; settings: Lolium multiflorum, post-emergence, 240 h, 125 g ai/ha, Postemergence; visual injury after approximately 10 d; 0 to 100 scale where 0 is no effect and 100 is complete control; read-out: Plant response rating, Ryegrass, Italian
Summary of the method: as §2

[10] = test system: Galium (catchweed bedstraw, Galium aparine); assay: Test A postemergence; settings: Galium, post-emergence, 240 h, 125 g ai/ha, Postemergence; visual injury after approximately 10 d; 0 to 100 scale where 0 is no effect and 100 is complete control; read-out: Plant response rating, Galium
Summary of the method: as §2

Kochia (Kochia scoparia) [11] = assay: Test A postemergence; settings: Bassia scoparia, post-emergence, 240 h, 125 g ai/ha, Postemergence; visual injury after approximately 10 d; 0 to 100 scale where 0 is no effect and 100 is complete control; read-out: Plant response rating, Kochia
Summary of the method: as §2

[12] = test system: giant foxtail (Setaria faberii); assay: Test A postemergence; settings: Setaria faberi, post-emergence, 240 h, 125 g ai/ha, Postemergence; visual injury after approximately 10 d; 0 to 100 scale where 0 is no effect and 100 is complete control; read-out: Plant response rating, Foxtail, Giant
Summary of the method: as §2

[13] = test system: barnyardgrass (Echinochloa crus-galli); assay: Test A preemergence; settings: Echinochloa crus-galli, pre-emergence, 240 h; for pest or weed control at 125 g/ha: 125 g ai/ha, Preemergence, visual injury rating after approximately 10 d, read-out: Barnyardgrass plant response rating (0 to 100 scale, 0 is no effect, 100 is complete control); for pest or weed control at 500 g/ha: 500 g ai/ha, preemergence, visual injury rating about 10 d after treatment, 0 to 100 scale (0 no effect, 100 complete control), read-out: Barnyardgrass plant response rating
Summary of the method: as §2

[14] = test system: ragweed (common ragweed, Ambrosia elatior); assay: Test A preemergence; settings: Ambrosia artemisiifolia, pre-emergence, 240 h; for pest or weed control at 125 g/ha: 125 g ai/ha, Preemergence, visual injury rating after approximately 10 d, read-out: Ragweed plant response rating (0 to 100 scale, 0 is no effect, 100 is complete control); for pest or weed control at 500 g/ha: 500 g ai/ha, preemergence, visual injury rating about 10 d after treatment, 0 to 100 scale (0 no effect, 100 complete control), read-out: Ragweed plant response rating
Summary of the method: as §2

[15] = test system: pigweed (Amaranthus retroflexus); assay: Test A preemergence; settings: Amaranthus retroflexus, pre-emergence, 240 h; for pest or weed control at 125 g/ha: 125 g ai/ha, Preemergence, visual injury rating after approximately 10 d, read-out: Pigweed plant response rating (0 to 100 scale, 0 is no effect, 100 is complete control); for pest or weed control at 500 g/ha: 500 g ai/ha, preemergence, visual injury rating about 10 d after treatment, 0 to 100 scale (0 no effect, 100 complete control), read-out: Pigweed plant response rating
[16] = test system: ryegrass, Italian (Italian ryegrass, Lolium multiflorum); assay: Test A preemergence; settings: Lolium multiflorum, pre-emergence, 240 h; for pest or weed control at 125 g/ha: 125 g ai/ha, Preemergence, visual injury rating after approximately 10 d, read-out: Ryegrass, Italian plant response rating (0 to 100 scale, 0 is no effect, 100 is complete control); for pest or weed control at 500 g/ha: 500 g ai/ha, preemergence, visual injury rating about 10 d after treatment, 0 to 100 scale (0 no effect, 100 complete control), read-out: Ryegrass, Italian plant response rating
Summary of the method: as §2

Kochia (Kochia scoparia) [17] = assay: Test A preemergence; settings: Bassia scoparia, pre-emergence, 240 h; for pest or weed control at 125 g/ha: 125 g ai/ha, Preemergence, visual injury rating after approximately 10 d, read-out: Kochia plant response rating (0 to 100 scale, 0 is no effect, 100 is complete control); for pest or weed control at 500 g/ha: 500 g ai/ha, preemergence, visual injury rating about 10 d after treatment, 0 to 100 scale (0 no effect, 100 complete control), read-out: Kochia plant response rating
Summary of the method: as §2

[18] = test system: giant foxtail (Setaria faberii); assay: Test A preemergence; settings: Setaria faberi, pre-emergence, 240 h; for pest or weed control at 125 g/ha: 125 g ai/ha, Preemergence, visual injury rating after approximately 10 d, read-out: Foxtail, Giant plant response rating (0 to 100 scale, 0 is no effect, 100 is complete control); for pest or weed control at 500 g/ha: 500 g ai/ha, preemergence, visual injury rating about 10 d after treatment, 0 to 100 scale (0 no effect, 100 complete control), read-out: Foxtail, Giant plant response rating
Summary of the method: as §2

SMILES: CC(C)Oc1ccc([C@H]2CN(C)C(=O)[C@@H]2C(=O)Nc2ccccc2F)cc1 [Compound 952]
- pest or weed control at 250 g/ha [1]: 0%
- pest or weed control at 250 g/ha (rice (Oryra sativa)): 0%
- pest or weed control at 250 g/ha [2]: 0%
- pest or weed control at 250 g/ha [3]: 40%
- pest or weed control at 125 g/ha [4]: 60%
- plant injury at 125 g/ha [5]: 0%
- pest or weed control at 125 g/ha [6]: 0%
- pest or weed control at 125 g/ha [7]: 0%
- Corn plant response rating (crop injury, 0 = no effect, 100 = complete kill) at 125 g/ha (corn (Zea mays)): 0%
- pest or weed control at 125 g/ha [8]: 0%
- pest or weed control at 125 g/ha [9]: 0%
- pest or weed control at 125 g/ha [10]: 0%
- pest or weed control at 125 g/ha (Kochia (Kochia scoparia) [11]): 0%
- pest or weed control at 125 g/ha [12]: 50%
- pest or weed control at 125 g/ha [13]: 50%
- pest or weed control at 500 g/ha [13]: 90%
- pest or weed control at 125 g/ha [14]: 0%
- pest or weed control at 500 g/ha [14]: 0%
- pest or weed control at 125 g/ha [15]: 0%
- pest or weed control at 500 g/ha [15]: 0%
- pest or weed control at 125 g/ha [16]: 0%
- pest or weed control at 500 g/ha [16]: 0%
- pest or weed control at 125 g/ha (Kochia (Kochia scoparia) [17]): 30%
- pest or weed control at 500 g/ha (Kochia (Kochia scoparia) [17]): 30%
- pest or weed control at 125 g/ha [18]: 80%
- pest or weed control at 500 g/ha [18]: 90%

SMILES: CC(C)Oc1ccc([C@H]2CN(C)C(=O)[C@@H]2C(=O)Nc2cccc(F)c2F)cc1 [Compound 953]
- pest or weed control at 250 g/ha [1]: 20%
- pest or weed control at 250 g/ha (rice (Oryra sativa)): 0%
- pest or weed control at 250 g/ha [2]: 0%
- pest or weed control at 250 g/ha [3]: 40%
- pest or weed control at 125 g/ha [4]: 90%
- plant injury at 125 g/ha [5]: 0%
- pest or weed control at 125 g/ha [6]: 0%
- pest or weed control at 125 g/ha [7]: 0%
- Corn plant response rating (crop injury, 0 = no effect, 100 = complete kill) at 125 g/ha (corn (Zea mays)): 0%
- pest or weed control at 125 g/ha [8]: 0%
- pest or weed control at 125 g/ha [9]: 0%
- pest or weed control at 125 g/ha [10]: 20%
- pest or weed control at 125 g/ha (Kochia (Kochia scoparia) [11]): 30%
- pest or weed control at 125 g/ha [12]: 90%
- pest or weed control at 125 g/ha [13]: 90%
- pest or weed control at 500 g/ha [13]: 90%
- pest or weed control at 125 g/ha [14]: 0%
- pest or weed control at 500 g/ha [14]: 0%
- pest or weed control at 125 g/ha [15]: 0%
- pest or weed control at 500 g/ha [15]: 0%
- pest or weed control at 125 g/ha [16]: 0%
- pest or weed control at 500 g/ha [16]: 60%
- pest or weed control at 125 g/ha (Kochia (Kochia scoparia) [17]): 60%
- pest or weed control at 500 g/ha (Kochia (Kochia scoparia) [17]): 60%
- pest or weed control at 125 g/ha [18]: 90%
- pest or weed control at 500 g/ha [18]: 100%
